Experimental data reported in ChEMBL document CHEMBL5257025, “Artemisinin-Derived Dimers: Potent Antimalarial and Anticancer Agents” (J Med Chem, 2016).

Columns and labels:
Plasmodium falciparum [1] = test: microbe, parasite or virus in culture; conditions: Dd2
Description: Antiplasmodial activity against Plasmodium falciparum Dd2 assessed as inhibition of parasitic growth

KB = test: Antiproliferative activity against human KB cells assessed as reduction in cell viability incubated for 48 hrs by MTT assay; type: functional, cell-based
[2] = Antiproliferative activity against human BC cells assessed as growth inhibition; type: functional, cell-based
[3] = Cytotoxicity against African green monkey Vero cells; type: toxicity, cell-based; conditions: chlorocebus sabaeus, read-out: TC50 (the source's name)
Plasmodium falciparum [4] = test: Antimalarial activity against Plasmodium falciparum K1 assessed as inhibition of malarial growth; type: functional, organism-based
HCT-116 = test: Antiproliferative activity against human HCT-116 cells assessed as growth after 48 hrs by MTT assay; type: functional, cell-based; conditions: HCT-116, 48 h
[5] = Cytotoxicity against human HFF cells assessed as cell growth inhibition measured after 48 hrs by MTT assay; type: toxicity, cell-based
HeLa = test: Antiproliferative activity against human Hela cells assessed as cell growth inhibition measured after 48 hrs by MTT assay; type: functional, cell-based
[6] = Antiproliferative activity against human 1205Lu cells assessed as reduction in cell growth; type: functional, cell-based
Plasmodium falciparum [7] = test: Antimalarial activity against Plasmodium falciparum NF54 assessed as reduction in cell growth; type: functional, organism-based
MDA-MB-231 = test: Antiproliferative activity against human MDA-MB-231 cells assessed as reduction in cell viability measured after 48 hrs by MTT assay; type: functional, cell-based; conditions: MDA-MB-231, 48 h
BT-474 = test: Antiproliferative activity against human BT-474 cells assessed as reduction in cell growth measured after 72 hrs by MTT assay; type: functional, cell-based; conditions: BT-474, 72 h
HT-29 = test: cells; conditions: Homo sapiens, HT-29, 72 h
P388 = test: Antiproliferative activity against mouse P388 cells assessed as cell growth inhibition incubated for 72 hrs by MTT assay; type: functional, cell-based; conditions: P388, 72 h
BeWo = test: Antiproliferative activity against human BeWo cells assessed as reduction in cell viability after 72 hrs by MTT assay; type: functional, cell-based
MCF7 = test: Antiproliferative activity against human MCF7 cells assessed as reduction in cell viability measured after 48 hrs by SRB assay; type: functional, cell-based; conditions: MCF7, 48 h
EL4 = test: Antiproliferative activity against mouse EL4 cells assessed as cell growth inhibition incubated for 72 hrs by MTT assay; type: functional, cell-based; conditions: EL4, 72 h
Plasmodium falciparum [8] = test: Antiplasmodial activity against Plasmodium falciparum NF54 assessed as reduction in malarial growth; type: functional, organism-based

C[C@@H]1CC[C@H]2[C@@H](C)C(O)O[C@H]3O[C@]4(C)CC[C@@H]1[C@]32O4 (stereo partly drawn) gave an IC50 (Plasmodium falciparum [1]) of 2730 nM.
Molecule C[C@H]1[C@H](CCCCC[C@H]2O[C@H]3O[C@@]4(C)CC[C@H]5[C@H](C)CC[C@@H]([C@H]2C)[C@@]35OO4)O[C@H]2O[C@@]3(C)CC[C@H]4[C@H](C)CC[C@@H]1[C@@]24OO3 has an IC50 (KB) of 0.76 µM, an IC50 [2] of 360 nM and a CC50 [3] of 2.8 µM. For the same molecule, the IC50 (Plasmodium falciparum [4]) was 0.91 nM.
C[C@H]1[C@H](OC(=O)CCC(=O)O)O[C@@H]2O[C@@]3(C)CC[C@H]4[C@H](C)CC[C@@H]1[C@@]24OO3 [ARTESUNATE] gave an IC50 (HCT-116) of 7100 nM, a CC50 at 48 h ([5]; time 48 hrs, read-out: TC50) of 717 µM and an IC50 (HeLa) of 7100 nM. For the same molecule, the IC50 [6] was 7100 nM.
In the case of CCCCC[C@@]1(C[C@@H]2C(=O)O[C@H]3O[C@@]4(C)CC[C@H]5[C@H](C)CC[C@@H]2[C@@]35OO4)O[C@H]2O[C@@]3(C)CC[C@H]4[C@H](C)CC[C@@H]([C@H]1C)[C@@]24OO3, the IC50 (KB) is reported as 23 µM, the IC50 [2] is reported as 36000 nM and the CC50 [3] is reported as 63 µM.
C[C@@H]1CC[C@H]2[C@@H](C)C(CC(COC(=O)CCC(=O)O)CC3O[C@H]4O[C@@]5(C)CC[C@H]6[C@H](C)CC[C@@H]([C@H]3C)[C@@]46OO5)O[C@H]3O[C@@]4(C)CC[C@@H]1[C@]32OO4 (stereo partly drawn) gave an IC50 (Plasmodium falciparum [7]) of 2 nM, an IC50 (MDA-MB-231) of 32 µM and an IC50 (BT-474) of 390 nM.
With C[C@@H]1CC[C@H]2[C@H](C[C@]3(Cc4cccc(F)c4)O[C@H]4O[C@@]5(C)CC[C@H]6[C@H](C)CC[C@@H]([C@H]3C)[C@@]46OO5)C(=O)O[C@H]3O[C@@]4(C)CC[C@@H]1[C@]32OO4 the IC50 (KB) was 4 µM, the IC50 [2] was 3500 nM and the CC50 [3] was 5.5 µM.
C[C@H]1[C@H](CCCC[C@H]2O[C@H]3O[C@@]4(C)CC[C@H]5[C@H](C)CC[C@@H]([C@H]2C)[C@@]35OO4)O[C@H]2O[C@@]3(C)CC[C@H]4[C@H](C)CC[C@@H]1[C@@]24OO3 showed an IC50 (KB) of 1.8 µM, an IC50 [2] of 1600 nM and a CC50 [3] of 10 µM. The IC50 (Plasmodium falciparum [4]) was 1.4 nM.
Work on CO[C@@]12[C@H](COC(N)=O)C3=C(C(=O)C(C)=C(N)C3=O)N1C[C@@H]1N[C@@H]12 [MITOMYCIN] yielded an IC50 (HT-29) of 0.06 µM, an IC50 (P388) of 0.06 µM and an IC50 (BeWo) of 60 nM. The IC50 (MCF7) was 60 nM and the IC50 (EL4) was 60 nM.
C[C@@H]1CC[C@H]2[C@H](C[C@]3(CCCCc4ccccc4)O[C@H]4O[C@@]5(C)CC[C@H]6[C@H](C)CC[C@@H]([C@H]3C)[C@@]46OO5)C(=O)O[C@H]3O[C@@]4(C)CC[C@@H]1[C@]32OO4 gave an IC50 (KB) of 5.7 µM, an IC50 [2] of 1200 nM and a CC50 [3] of 2.4 µM. For the same molecule, the IC50 (Plasmodium falciparum [8]) was 3.4 nM.
C[C@@H]1CC[C@H]2[C@@H](C)C(CC(CC3O[C@@H]4O[C@]5(C)CC[C@@H]6[C@@H](C)CC[C@H]([C@@H]3C)[C@]46OO5)CS(=O)(=O)c3ccc(COC(=O)N(C)C)cc3)O[C@H]3O[C@@]4(C)CC[C@@H]1[C@]32OO4 (stereo partly drawn) showed an IC50 (HCT-116) of 70 nM, an IC50 at 48 h [5] of 57.5 µM and an IC50 (HeLa) of 270 nM. It also gave an IC50 [6] of 130 nM.
Work on C[C@@H]1CC[C@H]2[C@@H](C)C(CC(CC3O[C@@H]4O[C@]5(C)CC[C@@H]6[C@@H](C)CC[C@H]([C@@H]3C)[C@]46OO5)CN3CCN(C)CC3)O[C@H]3O[C@@]4(C)CC[C@@H]1[C@]32OO4 (stereo partly drawn) yielded an IC50 (MDA-MB-231) of 3.3 µM and an IC50 (BT-474) of 110 nM.
With C[C@@H]1CC[C@H]2[C@@H](C)C(CC(COP(=O)(O)Oc3ccccc3)CC3O[C@@H]4O[C@]5(C)CC[C@@H]6[C@@H](C)CC[C@H]([C@@H]3C)[C@]46OO5)O[C@H]3O[C@@]4(C)CC[C@@H]1[C@]32OO4 (stereo partly drawn) the IC50 (HCT-116) was 6670 nM, the IC50 at 48 h [5] was 56.5 µM and the IC50 (HeLa) was 18600 nM.
For C[C@H]1[C@@H](CCCCNC(=O)CC[C@H]2O[C@H]3O[C@@]4(C)CC[C@H]5[C@H](C)CC[C@@H]([C@H]2C)[C@@]35OO4)O[C@H]2O[C@@]3(C)CC[C@H]4[C@H](C)CC[C@@H]1[C@@]24OO3, the IC50 (HT-29) was 30.5 µM, the IC50 (P388) was greater than 30.2 µM and the IC50 (BeWo) was greater than 30200 nM. For the same molecule, the IC50 (MCF7) was greater than 30200 nM and the IC50 (EL4) was greater than 30200 nM.
With CC(=O)N1CCN(CC(CC2O[C@@H]3O[C@]4(C)CC[C@@H]5[C@@H](C)CC[C@H]([C@@H]2C)[C@]35OO4)CC2O[C@H]3O[C@@]4(C)CC[C@H]5[C@H](C)CC[C@@H]([C@H]2C)[C@@]35OO4)CC1 (stereo partly drawn) the IC50 (MDA-MB-231) was 8 µM and the IC50 (BT-474) was 60 nM.
Molecule C[C@@H]1CC[C@H]2[C@H](C[C@]3(Cc4ccc(F)cc4)O[C@H]4O[C@@]5(C)CC[C@H]6[C@H](C)CC[C@@H]([C@H]3C)[C@@]46OO5)C(=O)O[C@H]3O[C@@]4(C)CC[C@@H]1[C@]32OO4 has an IC50 (KB) of 7.7 µM, an IC50 [2] of 7400 nM and a CC50 [3] of 1.1 µM.
In the case of C[C@@H]1CC[C@H]2[C@@H](C)C(CC(CC3O[C@@H]4O[C@]5(C)CC[C@@H]6[C@@H](C)CC[C@H]([C@@H]3C)[C@]46OO5)CS(=O)(=O)c3ccc(CO)cc3)O[C@H]3O[C@@]4(C)CC[C@@H]1[C@]32OO4 (stereo partly drawn), the IC50 (HCT-116) is reported as 70 nM, the IC50 at 48 h [5] is reported as 4.9 µM and the IC50 (HeLa) is reported as 560 nM. The IC50 [6] was 100 nM.
Work on C[C@@H]1CC[C@H]2[C@@H](C)C(CC(CC3O[C@@H]4O[C@]5(C)CC[C@@H]6[C@@H](C)CC[C@H]([C@@H]3C)[C@]46OO5)CN3CCN(c4ccccn4)CC3)O[C@H]3O[C@@]4(C)CC[C@@H]1[C@]32OO4 (stereo partly drawn) yielded an IC50 (MDA-MB-231) of 5 µM and an IC50 (BT-474) of 22 nM.
With C[C@@H]1CC[C@H]2[C@@H](C)C(CCNC(=O)CCC(N)C(=O)NCCC3O[C@H]4O[C@@]5(C)CC[C@H]6[C@H](C)CC[C@@H]([C@H]3C)[C@@]46OO5)O[C@H]3O[C@@]4(C)CC[C@@H]1[C@]32OO4 (stereo partly drawn) the IC50 (HT-29) was 8.9 µM, the IC50 (P388) was 21.3 µM and the IC50 (BeWo) was greater than 27300 nM. The IC50 (MCF7) was 20900 nM and the IC50 (EL4) was 22500 nM.
Work on C[C@@H]1CC[C@H]2[C@@H](C)C(CC(CC3O[C@@H]4O[C@]5(C)CC[C@@H]6[C@@H](C)CC[C@H]([C@@H]3C)[C@]46OO5)C(=O)NN)O[C@H]3O[C@@]4(C)CC[C@@H]1[C@]32OO4 (stereo partly drawn) yielded an IC50 (BT-474) of 13 nM.
C[C@@H]1CC[C@H]2[C@@H](C)C(CC(CC3O[C@@H]4O[C@]5(C)CC[C@@H]6[C@@H](C)CC[C@H]([C@@H]3C)[C@]46OO5)CN3CCN(c4cccnc4)CC3)O[C@H]3O[C@@]4(C)CC[C@@H]1[C@]32OO4 (stereo partly drawn) showed an IC50 (MDA-MB-231) of 10 µM and an IC50 (BT-474) of 70 nM.
C[C@@H]1CC[C@H]2[C@@H](C)C(CC(COP(=O)(Oc3ccccc3)Oc3ccccc3)CC3O[C@@H]4O[C@]5(C)CC[C@@H]6[C@@H](C)CC[C@H]([C@@H]3C)[C@]46OO5)O[C@H]3O[C@@]4(C)CC[C@@H]1[C@]32OO4 (stereo partly drawn) gave an IC50 (HCT-116) of 40 nM, an IC50 at 48 h [5] of 55.8 µM and an IC50 (HeLa) of 190 nM. The IC50 [6] was 60 nM.
Work on C[C@@H]1CC[C@H]2[C@@H](C)C(CCS(=O)(=O)CCC3O[C@@H]4O[C@]5(C)CC[C@@H]6[C@@H](C)CC[C@H]([C@@H]3C)[C@]46OO5)O[C@H]3O[C@@]4(C)CC[C@@H]1[C@]32OO4 (stereo partly drawn) yielded an IC50 (HT-29) of 0.58 µM, an IC50 (P388) of 8.55 µM and an IC50 (BeWo) of 1590 nM. For the same molecule, the IC50 (MCF7) was 40 nM and the IC50 (EL4) was 820 nM.
